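The concentration for 50% growth inhibition is given as GI50. TGI: concentration producing complete growth inhibition.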
How the values were obtained:
Assay in all cases: NCI-60 cell line screen, 384-well format
BT-549 breast = test system: BT-549 breast
MOLT-4 leukemia = test system: MOLT-4 leukemia
ACHN renal = test system: ACHN renal
SK-OV-3 ovarian = test system: SK-OV-3 ovarian
MDA-MB-231 breast = test system: MDA-MB-231 breast
SK-MEL-2 melanoma = test system: SK-MEL-2 melanoma
SK-MEL-28 melanoma = test system: SK-MEL-28 melanoma
UACC-62 melanoma = test system: UACC-62 melanoma
SNB-19 CNS = test system: SNB-19 CNS
HT29 colon = test system: HT29 colon
EKVX NSCLC = test system: EKVX NSCLC
OVCAR-5 ovarian = test system: OVCAR-5 ovarian
NCI-H226 lung = test system: NCI-H226 lung
RPMI-8226 leukemia = test system: RPMI-8226 leukemia
SN12C renal = test system: SN12C renal
HCT-15 colon = test system: HCT-15 colon
OVCAR-3 ovarian = test system: OVCAR-3 ovarian
IGROV1 ovarian = test system: IGROV1 ovarian
OVCAR-4 ovarian = test system: OVCAR-4 ovarian
TK-10 renal = test system: TK-10 renal
MDA-MB-468 breast = test system: MDA-MB-468 breast
786-0 renal = test system: 786-0 renal
COLO 205 colon = test system: COLO 205 colon
HCC-2998 colon = test system: HCC-2998 colon
NCI-H522 lung = test system: NCI-H522 lung
SF-539 CNS = test system: SF-539 CNS
KM12 colon = test system: KM12 colon
NCI-H23 lung = test system: NCI-H23 lung
HL-60(TB) leukemia = test system: HL-60(TB) leukemia
U251 glioblastoma = test system: U251 glioblastoma
MCF7 breast = test system: MCF7 breast
T-47D breast = test system: T-47D breast
SF-268 CNS = test system: SF-268 CNS
HOP-62 NSCLC = test system: HOP-62 NSCLC
MDA-MB-435 melanoma = test system: MDA-MB-435 melanoma
HS 578T breast = test system: HS 578T breast
CAKI-1 renal = test system: CAKI-1 renal
NCI-H322M lung = test system: NCI-H322M lung
UACC-257 melanoma = test system: UACC-257 melanoma
CCRF-CEM leukemia = test system: CCRF-CEM leukemia
SNB-75 CNS = test system: SNB-75 CNS
RXF 393 renal = test system: RXF 393 renal
DU-145 prostate = test system: DU-145 prostate
SF-295 CNS = test system: SF-295 CNS
SW-620 colon = test system: SW-620 colon
NCI/ADR-RES ovarian = test system: NCI/ADR-RES ovarian
SK-MEL-5 melanoma = test system: SK-MEL-5 melanoma
A549 NSCLC = test system: A549 NSCLC
PC-3 prostate = test system: PC-3 prostate
OVCAR-8 ovarian = test system: OVCAR-8 ovarian
M14 melanoma = test system: M14 melanoma
HOP-92 NSCLC = test system: HOP-92 NSCLC
SR leukemia = test system: SR leukemia
NCI-H460 NSCLC = test system: NCI-H460 NSCLC
MALME-3M melanoma = test system: MALME-3M melanoma
A498 renal = test system: A498 renal

## O=c1ccn(C2OC(CO)C(O)C2F)c(=O)[nH]1 (configuration not stated)
BT-549 breast
  GI50: > 100 µM
  TGI: > 100 µM
MOLT-4 leukemia
  GI50: 53.1 µM
  TGI: > 100 µM
ACHN renal
  GI50: > 100 µM
  TGI: > 100 µM
SK-OV-3 ovarian
  GI50: > 100 µM
  TGI: > 100 µM
MDA-MB-231 breast
  GI50: > 100 µM
  TGI: > 100 µM
SK-MEL-2 melanoma
  GI50: > 100 µM
  TGI: > 100 µM
SK-MEL-28 melanoma
  GI50: > 100 µM
  TGI: > 100 µM
UACC-62 melanoma
  GI50: > 100 µM
  TGI: > 100 µM
SNB-19 CNS
  GI50: > 100 µM
  TGI: > 100 µM
HT29 colon
  GI50: > 100 µM
  TGI: > 100 µM
EKVX NSCLC
  GI50: > 100 µM
  TGI: > 100 µM
OVCAR-5 ovarian
  GI50: > 100 µM
  TGI: > 100 µM
NCI-H226 lung
  GI50: > 100 µM
  TGI: > 100 µM
RPMI-8226 leukemia
  GI50: > 100 µM
  TGI: > 100 µM
SN12C renal
  GI50: > 100 µM
  TGI: > 100 µM
HCT-15 colon
  GI50: > 100 µM
  TGI: > 100 µM
OVCAR-3 ovarian
  GI50: > 100 µM
  TGI: > 100 µM
IGROV1 ovarian
  GI50: > 100 µM
  TGI: > 100 µM
OVCAR-4 ovarian
  GI50: > 100 µM
  TGI: > 100 µM
TK-10 renal
  GI50: > 100 µM
  TGI: > 100 µM
MDA-MB-468 breast
  GI50: > 100 µM
  TGI: > 100 µM
786-0 renal
  GI50: > 100 µM
  TGI: > 100 µM
COLO 205 colon
  GI50: > 100 µM
  TGI: > 100 µM
HCC-2998 colon
  GI50: > 100 µM
  TGI: > 100 µM
NCI-H522 lung
  GI50: > 100 µM
  TGI: > 100 µM
SF-539 CNS
  GI50: > 100 µM
  TGI: > 100 µM
KM12 colon
  GI50: > 100 µM
  TGI: > 100 µM
NCI-H23 lung
  GI50: > 100 µM
  TGI: > 100 µM
HL-60(TB) leukemia
  GI50: > 100 µM
  TGI: > 100 µM
U251 glioblastoma
  GI50: > 100 µM
  TGI: > 100 µM
MCF7 breast
  GI50: > 100 µM
  TGI: > 100 µM
T-47D breast
  GI50: > 100 µM
  TGI: > 100 µM
SF-268 CNS
  GI50: > 100 µM
  TGI: > 100 µM
HOP-62 NSCLC
  GI50: > 100 µM
  TGI: > 100 µM
MDA-MB-435 melanoma
  GI50: > 100 µM
  TGI: > 100 µM
HS 578T breast
  GI50: > 100 µM
  TGI: > 100 µM
CAKI-1 renal
  GI50: > 100 µM
  TGI: > 100 µM
NCI-H322M lung
  GI50: > 100 µM
  TGI: > 100 µM
UACC-257 melanoma
  GI50: > 100 µM
  TGI: > 100 µM
CCRF-CEM leukemia
  GI50: 37.3 µM
  TGI: > 100 µM
SNB-75 CNS
  GI50: > 100 µM
  TGI: > 100 µM
RXF 393 renal
  GI50: > 100 µM
  TGI: > 100 µM
DU-145 prostate
  GI50: > 100 µM
  TGI: > 100 µM
SF-295 CNS
  GI50: > 100 µM
  TGI: > 100 µM
SW-620 colon
  GI50: > 100 µM
  TGI: > 100 µM
NCI/ADR-RES ovarian
  GI50: > 100 µM
  TGI: > 100 µM
SK-MEL-5 melanoma
  GI50: > 100 µM
  TGI: > 100 µM
A549 NSCLC
  GI50: > 100 µM
  TGI: > 100 µM
PC-3 prostate
  GI50: > 100 µM
  TGI: > 100 µM
OVCAR-8 ovarian
  GI50: > 100 µM
  TGI: > 100 µM
M14 melanoma
  GI50: > 100 µM
  TGI: > 100 µM
HOP-92 NSCLC
  GI50: > 100 µM
  TGI: > 100 µM
SR leukemia
  GI50: > 100 µM
  TGI: > 100 µM
NCI-H460 NSCLC
  GI50: > 100 µM
  TGI: > 100 µM
MALME-3M melanoma
  GI50: > 100 µM
  TGI: > 100 µM
A498 renal
  GI50: > 100 µM
  TGI: > 100 µM

Source: PubChem BioAssay (NCI)
